Laboratory results published in PubChem BioAssay AID330 (DTP/NCI, 2004).
“And” between values parts separate entries of the source, which are not always exact repeats. Identical values can stand only once. Toxic doses and inconclusive results are not listed.

System: P388 leukemia ip, CD2F1 mice, survival T/C
Assay: NCI In Vivo Anticancer Drug Screen. Data for tumor model P388 Leukemia (intraperitoneal) in CD2F1 (CDF1) mice
Settings: endpoint: median survival time, higher = longer survival
Outline: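 Mice carrying the transplanted tumor received test compound or vehicle. Survival was recorded in each group, and the value is the treated-group measurement divided by that of the vehicle-treated control group.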

[1] = dose: 12.5 mg/kg/injection, schedule: Q01DX009 (ip), vehicle: distilled water + Tween-80
[2] = dose: 50.0 mg/kg/injection, schedule: Q01DX009 (ip), vehicle: saline with Tween-80
[3] = dose: 100.0 mg/kg/injection, schedule: Q01DX009 (ip), vehicle: saline with Tween-80
[4] = dose: 200.0 mg/kg/injection, schedule: Q01DX009 (ip), vehicle: saline with Tween-80
[5] = dose: 100.0 mg/kg/injection, schedule: Q01DX009 (ip), vehicle: saline
[6] = dose: 25.0 mg/kg/injection, schedule: Q04DX002 (ip), vehicle: saline

`COc1ccc(N2C(=O)/C(=C/c3ccccc3)N=C2/C=C/c2ccc(Cl)cc2)cc1` was tested, and the T/C (dose: 15.0 mg/kg/injection, schedule: Q01DX005 (ip), vehicle: Klucel + Tween-80) was 93 % of control, the T/C (dose: 30.0 mg/kg/injection, schedule: Q01DX005 (ip), vehicle: Klucel + Tween-80) was 95 % of control and the T/C (dose: 60.0 mg/kg/injection, schedule: Q01DX005 (ip), vehicle: Klucel + Tween-80) was 107 % of control and 96 % of control.

For `NS(=O)(=O)c1cc2c(cc1Cl)NC(CCC(=O)O)=NS2(=O)=O`, the T/C [1] was 93 % of control, the T/C (dose: 25.0 mg/kg/injection, schedule: Q01DX009 (ip), vehicle: distilled water + Tween-80) was 102 % of control and the T/C (dose: 25.0 mg/kg/injection, schedule: Q01DX009 (ip), vehicle: other) was 92 % of control. For the same compound, the T/C (dose: 50.0 mg/kg/injection, schedule: Q01DX009 (ip), vehicle: distilled water + Tween-80) was 98 % of control, the T/C (dose: 50.0 mg/kg/injection, schedule: Q01DX009 (ip), vehicle: other) was 90 % of control and the T/C (dose: 100.0 mg/kg/injection, schedule: Q01DX009 (ip), vehicle: distilled water + Tween-80) was 102 % of control. For the same compound, the T/C (dose: 100.0 mg/kg/injection, schedule: Q01DX009 (ip), vehicle: other) was 90 % of control, the T/C (dose: 200.0 mg/kg/injection, schedule: Q01DX009 (ip), vehicle: distilled water + Tween-80) was 102 % of control and the T/C (dose: 400.0 mg/kg/injection, schedule: Q01DX009 (ip), vehicle: distilled water + Tween-80) was 98 % of control. The T/C (dose: 400.0 mg/kg/injection, schedule: Q01DX009 (ip), vehicle: other) was 97 % of control.

For `CCn1c2ccccc2c2cc(N=C3C(=O)N(C)c4ccccc43)ccc21`, the T/C (dose: 60.0 mg/kg/injection, schedule: Q01DX005 (ip), vehicle: Klucel (hydroxypropylcellulose) (HPC)) was 90 % of control, the T/C (dose: 120.0 mg/kg/injection, schedule: Q01DX005 (ip), vehicle: Klucel (hydroxypropylcellulose) (HPC)) was 92 % of control and the T/C (dose: 240.0 mg/kg/injection, schedule: Q01DX005 (ip), vehicle: Klucel (hydroxypropylcellulose) (HPC)) was 90 % of control.

With `O=C1CC(O)(c2ccc(-c3ccccc3)cc2)CS1` (stereo unspecified) the T/C (dose: 100.0 mg/kg/injection, schedule: Q04DX003 (ip), vehicle: Klucel (hydroxypropylcellulose) (HPC)) was 101 % of control, the T/C (dose: 200.0 mg/kg/injection, schedule: Q04DX003 (ip), vehicle: Klucel (hydroxypropylcellulose) (HPC)) was 99 % of control and the T/C (dose: 400.0 mg/kg/injection, schedule: Q04DX003 (ip), vehicle: Klucel (hydroxypropylcellulose) (HPC)) was 92 % of control.

In the case of `O=C([O-])CN(CCN(CC(=O)[O-])CC(=O)O)CC(=O)O.[Fe+5].[Na+]`, the T/C [2] is reported as 91 % of control, the T/C [3] is reported as 91 % of control and the T/C (dose: 100.0 mg/kg/injection, schedule: Q04DX003 (ip), vehicle: saline sonified) is reported as 86 % of control. For the same compound, the T/C [4] was 91 % of control and the T/C (dose: 200.0 mg/kg/injection, schedule: Q04DX003 (ip), vehicle: saline sonified) was 90 % of control.

`CC(C)(C)C(=O)CP(=O)(O)O` (tested in a mixture with another compound) was tested, and the T/C (dose: 50.0 mg/kg/injection, schedule: Q01DX009 (ip), vehicle: saline) was 105 % of control and the T/C [5] was 101 % of control.

For `C=C1C(=O)OC2CC1C(OC(C)=O)C/C(C)=C/CC/C(C)=C\CCC2(C)O` (stereo unspecified), the T/C (dose: 5.0 mg/kg/injection, schedule: Q01DX009 (ip), vehicle: Klucel (hydroxypropylcellulose) (HPC)) was 107 % of control, the T/C (dose: 8.0 mg/kg/injection, schedule: Q01DX009 (ip), vehicle: Klucel (hydroxypropylcellulose) (HPC)) was 103 % of control and the T/C (dose: 10.0 mg/kg/injection, schedule: Q01DX009 (ip), vehicle: Klucel (hydroxypropylcellulose) (HPC)) was 109 % of control. The T/C (dose: 16.0 mg/kg/injection, schedule: Q01DX009 (ip), vehicle: Klucel (hydroxypropylcellulose) (HPC)) was 95 % of control, the T/C (dose: 20.0 mg/kg/injection, schedule: Q01DX009 (ip), vehicle: Klucel (hydroxypropylcellulose) (HPC)) was 116 % of control and the T/C [6] was 100 % of control. The T/C (dose: 32.0 mg/kg/injection, schedule: Q01DX009 (ip), vehicle: Klucel (hydroxypropylcellulose) (HPC)) was 106 % of control, the T/C (dose: 40.0 mg/kg/injection, schedule: Q01DX009 (ip), vehicle: Klucel (hydroxypropylcellulose) (HPC)) was 117 % of control and the T/C (dose: 50.0 mg/kg/injection, schedule: Q04DX002 (ip), vehicle: saline) was 94 % of control. For the same compound, the T/C (dose: 64.0 mg/kg/injection, schedule: Q01DX009 (ip), vehicle: Klucel (hydroxypropylcellulose) (HPC)) was 106 % of control, the T/C (dose: 100.0 mg/kg/injection, schedule: Q04DX002 (ip), vehicle: saline) was 103 % of control and the T/C (dose: 200.0 mg/kg/injection, schedule: Q04DX002 (ip), vehicle: saline) was 103 % of control.

With `O=C1C(c2ccccc2)=C(c2ccccc2)/C1=C/c1ccc(Cl)cc1` the T/C (dose: 100.0 mg/kg/injection, schedule: Q01DX001 (ip), vehicle: Klucel (hydroxypropylcellulose) (HPC)) was 101 % of control, the T/C (dose: 200.0 mg/kg/injection, schedule: Q01DX001 (ip), vehicle: Klucel (hydroxypropylcellulose) (HPC)) was 105 % of control and the T/C (dose: 400.0 mg/kg/injection, schedule: Q01DX001 (ip), vehicle: Klucel (hydroxypropylcellulose) (HPC)) was 104 % of control.

For `O=C1c2ccccc2C(=Nc2ccccc2)c2c1c(O)n(-c1ccccc1)c2O`, the T/C (dose: 50.0 mg/kg/injection, schedule: Q01DX005 (ip), vehicle: Klucel (hydroxypropylcellulose) (HPC)) was 97 % of control, the T/C (dose: 100.0 mg/kg/injection, schedule: Q01DX005 (ip), vehicle: Klucel (hydroxypropylcellulose) (HPC)) was 91 % of control and the T/C (dose: 200.0 mg/kg/injection, schedule: Q01DX005 (ip), vehicle: Klucel (hydroxypropylcellulose) (HPC)) was 96 % of control.

`[S-]c1n[n+](-c2ccccc2)no1` was tested, and the T/C (dose: 6.25 mg/kg/injection, schedule: Q01DX009 (ip), vehicle: distilled water + Tween-80) was 102 % of control and the T/C [1] was 88 % of control.

With `Nc1nc(-c2ccccc2)nc(Cl)c1I` the T/C (dose: 25.0 mg/kg/injection, schedule: Q01DX009 (ip), vehicle: saline with Tween-80) was 103 % of control, the T/C [2] was 105 % of control and the T/C [3] was 102 % of control. The T/C (dose: 100.0 mg/kg/injection, schedule: Q04DX003 (ip), vehicle: saline) was 94 % of control, the T/C [4] was 105 % of control and the T/C (dose: 200.0 mg/kg/injection, schedule: Q04DX003 (ip), vehicle: saline) was 94 % of control. For the same compound, the T/C (dose: 400.0 mg/kg/injection, schedule: Q04DX003 (ip), vehicle: saline) was 101 % of control.

For `O=C(O)c1ccccc1N=N/C(=N\Nc1ccccc1C(=O)O)c1ccnc2ccccc12`, the T/C [2] was 100 % of control, the T/C [3] was 97 % of control and the T/C [4] was 103 % of control.

`Clc1cc2[nH]cnc2c(Cl)n1` was tested, and the T/C (dose: 6.25 mg/kg/injection, schedule: Q04DX002 (ip), vehicle: saline) was 102 % of control, the T/C (dose: 12.5 mg/kg/injection, schedule: Q04DX002 (ip), vehicle: saline) was 102 % of control and the T/C [6] was 103 % of control.

With `O=c1c2ccccc2nc(CCN(CCCl)CCCl)n1-c1ccc(Cl)cc1` the T/C (dose: 25.0 mg/kg/injection, schedule: Q01DX001 (ip), vehicle: saline) was 106 % of control, the T/C (dose: 50.0 mg/kg/injection, schedule: Q01DX001 (ip), vehicle: saline) was 113 % of control and the T/C (dose: 200.0 mg/kg/injection, schedule: Q01DX001 (ip), vehicle: saline) was 164 % of control.

`CC[C@@]1(O)C[C@H](OC2CC(N(C)C)C(OC3CC4OC5CC(=O)C(C)OC5OC4C(C)O3)C(C)O2)c2c(cc3c(c2O)C(=O)c2c(O)cccc2C3=O)[C@H]1C(=O)OC` (stereo partly specified) was tested, and the T/C (dose: 0.12 mg/kg/injection, schedule: Q01DX009 (ip), vehicle: water) was 117 % of control, the T/C (dose: 0.25 mg/kg/injection, schedule: Q01DX009 (ip), vehicle: water) was 115 % of control and the T/C (dose: 0.5 mg/kg/injection, schedule: Q01DX009 (ip), vehicle: water) was 110 % of control. The T/C (dose: 1.0 mg/kg/injection, schedule: Q01DX009 (ip), vehicle: water) was 110 % of control and the T/C (dose: 4.0 mg/kg/injection, schedule: Q01DX009 (ip), vehicle: water) was 162 % of control.

With `Nc1cc(S(=O)(=O)c2ccc(O)c(N)c2)ccc1O` the T/C [5] was 111 % of control and 92 % of control, the T/C (dose: 200.0 mg/kg/injection, schedule: Q01DX009 (ip), vehicle: saline) was 102 % of control and 104 % of control and the T/C (dose: 400.0 mg/kg/injection, schedule: Q01DX009 (ip), vehicle: saline) was 100 % of control and 95 % of control.

For `CC(C)C1OCN2CCCCC12` (stereo unspecified), the T/C (dose: 50.0 mg/kg/injection, schedule: Q01DX005 (ip), vehicle: saline) was 105 % of control, the T/C (dose: 100.0 mg/kg/injection, schedule: Q01DX005 (ip), vehicle: saline) was 108 % of control and the T/C (dose: 200.0 mg/kg/injection, schedule: Q01DX005 (ip), vehicle: saline) was 116 % of control.

For `NN=c1c2ccccc2oc2ccccc12`, the T/C (dose: 50.0 mg/kg/injection, schedule: Q01DX009 (ip), vehicle: Klucel (hydroxypropylcellulose) (HPC)) was 112 % of control, the T/C (dose: 100.0 mg/kg/injection, schedule: Q01DX009 (ip), vehicle: Klucel (hydroxypropylcellulose) (HPC)) was 115 % of control and the T/C (dose: 200.0 mg/kg/injection, schedule: Q01DX009 (ip), vehicle: Klucel (hydroxypropylcellulose) (HPC)) was 115 % of control.
